Organism: Rattus norvegicus
Test: DrugMatrix - Regimen: Daily Repeat
Type: toxicity, organism-based, Sprague-Dawley
Set-up: regimen Daily Repeat, gender Male, age 6-8 weeks
Conditions: in vivo, sc, route subcutaneous, […]; for ABSOLUTE BASOPHIL / ABSOLUTE EOSINOPHIL / ABSOLUTE LYMPHOCYTE / ABSOLUTE MONOCYTE / ABSOLUTE SEGMENTED NEUTROPHIL / BASOPHIL / EOSINOPHIL / ERYTHROCYTE COUNT / HEMATOCRIT / HEMOGLOBIN / LEUKOCYTE COUNT / LYMPHOCYTE / MEAN CORPUSCULAR HEMOGLOBIN / MEAN CORPUSCULAR HEMOGLOBIN CONCENTRATION / MEAN CORPUSCULAR VOLUME / MONOCYTE / NEUTROPHIL / NUCLEATED RED BLOOD CELLS / PLATELET COUNT: tissue Blood; for ALANINE AMINOTRANSFERASE / ALBUMIN / ALKALINE PHOSPHATASE / ASPARTATE AMINOTRANSFERASE / BLOOD UREA NITROGEN / CARBON DIOXIDE / CHLORIDE / CHOLESTEROL / CREATINE PHOSPHOKINASE / CREATININE / GLUCOSE / LACTATE DEHYDROGENASE / LIPASE / PHOSPHORUS / POTASSIUM / SODIUM / TOTAL BILIRUBIN / TOTAL PROTEIN / URIC ACID: tissue Plasma
[1] = 2 mg/kg, 120 h, dose level Low, time 5 day
[2] = 17 mg/kg, 72 h, dose level High, time 3 day
[3] = 17 mg/kg, 120 h, dose level High, time 5 day

Structure (SMILES): CCC(=O)O[C@]1(C(=O)CCl)[C@@H](C)C[C@H]2[C@@H]3CCC4=CC(=O)C=C[C@]4(C)[C@@]3(F)[C@@H](O)C[C@@]21C [CLOBETASOL PROPIONATE]
- ABSOLUTE BASOPHIL [1]: 0 CELLS/uL
- ABSOLUTE EOSINOPHIL [1]: 128.67 CELLS/uL
- ABSOLUTE LYMPHOCYTE [1]: 583 CELLS/uL
- ABSOLUTE MONOCYTE [1]: 17.33 CELLS/uL
- ABSOLUTE SEGMENTED NEUTROPHIL [1]: 7437.67 CELLS/uL
- BASOPHIL [1]: 0%
- EOSINOPHIL [1]: 1.33%
- ERYTHROCYTE COUNT [1]: 6.32 x10E6/uL
- HEMATOCRIT [1]: 40.2%
- HEMOGLOBIN [1]: 14.5 G/DL
- LEUKOCYTE COUNT [1]: 8.17 x10E3/uL
- LYMPHOCYTE [1]: 6.67%
- MEAN CORPUSCULAR HEMOGLOBIN [1]: 23.07 pg
- MEAN CORPUSCULAR HEMOGLOBIN CONCENTRATION [1]: 36.1 G/DL
- MEAN CORPUSCULAR VOLUME [1]: 63.83 fL
- MONOCYTE [1]: 0.33%
- NEUTROPHIL [1]: 91.67%
- NUCLEATED RED BLOOD CELLS [1]: 0 /100WBC
- PLATELET COUNT [1]: 805.67 x10E3/uL
- ALANINE AMINOTRANSFERASE [1]: 191.67 u/L
- ALBUMIN [1]: 4.53 G/DL
- ALKALINE PHOSPHATASE [1]: 392 u/L
- ASPARTATE AMINOTRANSFERASE [1]: 342 u/L
- BLOOD UREA NITROGEN [1]: 24.33 mg/dL
- CARBON DIOXIDE [1]: 19.67 mmol/L
- CHLORIDE [1]: 102.67 MEQ/L
- CHOLESTEROL [1]: 160 mg/dL
- CREATINE PHOSPHOKINASE [1]: 1604 u/L
- CREATININE [1]: 0.28 mg/dL
- GLUCOSE [1]: 604.67 mg/dL
- LACTATE DEHYDROGENASE [1]: 516.33 u/L
- LIPASE [1]: 10.33 u/L
- PHOSPHORUS [1]: 11.93 mg/dL
- POTASSIUM [1]: 4.7 MEQ/L
- SODIUM [1]: 143.1 MEQ/L
- TOTAL BILIRUBIN [1]: 0.7 mg/dL
- TOTAL PROTEIN [1]: 6.67 G/DL
- URIC ACID [1]: 0.9 mg/dL
- ABSOLUTE BASOPHIL [2]: 0 CELLS/uL
- ABSOLUTE EOSINOPHIL [2]: 24 CELLS/uL
- ABSOLUTE LYMPHOCYTE [2]: 383 CELLS/uL
- ABSOLUTE MONOCYTE [2]: 0 CELLS/uL
- ABSOLUTE SEGMENTED NEUTROPHIL [2]: 2026.33 CELLS/uL
- BASOPHIL [2]: 0%
- EOSINOPHIL [2]: 1%
- ERYTHROCYTE COUNT [2]: 5.77 x10E6/uL
- HEMATOCRIT [2]: 36.77%
- HEMOGLOBIN [2]: 13.07 G/DL
- LEUKOCYTE COUNT [2]: 2.43 x10E3/uL
- LYMPHOCYTE [2]: 15.67%
- MEAN CORPUSCULAR HEMOGLOBIN [2]: 22.7 pg
- MEAN CORPUSCULAR HEMOGLOBIN CONCENTRATION [2]: 35.57 G/DL
- MEAN CORPUSCULAR VOLUME [2]: 63.9 fL
- MONOCYTE [2]: 0%
- NEUTROPHIL [2]: 83.33%
- NUCLEATED RED BLOOD CELLS [2]: 0 /100WBC
- PLATELET COUNT [2]: 1160 x10E3/uL
- ALANINE AMINOTRANSFERASE [2]: 95 u/L
- ALBUMIN [2]: 5.23 G/DL
- ALKALINE PHOSPHATASE [2]: 460.67 u/L
- ASPARTATE AMINOTRANSFERASE [2]: 128.33 u/L
- BLOOD UREA NITROGEN [2]: 25.67 mg/dL
- CARBON DIOXIDE [2]: 23.33 mmol/L
- CHLORIDE [2]: 101.5 MEQ/L
- CHOLESTEROL [2]: 162.67 mg/dL
- CREATINE PHOSPHOKINASE [2]: 209.33 u/L
- CREATININE [2]: 0.29 mg/dL
- GLUCOSE [2]: 571.33 mg/dL
- LACTATE DEHYDROGENASE [2]: 160.33 u/L
- LIPASE [2]: 10.5 u/L
- PHOSPHORUS [2]: 10 mg/dL
- POTASSIUM [2]: 4.82 MEQ/L
- SODIUM [2]: 141.8 MEQ/L
- TOTAL BILIRUBIN [2]: 0.2 mg/dL
- TOTAL PROTEIN [2]: 7.47 G/DL
- URIC ACID [2]: 0.4 mg/dL
- ABSOLUTE BASOPHIL [3]: 0 CELLS/uL
- ABSOLUTE EOSINOPHIL [3]: 214.67 CELLS/uL
- ABSOLUTE LYMPHOCYTE [3]: 340.67 CELLS/uL
- ABSOLUTE MONOCYTE [3]: 76.33 CELLS/uL
- ABSOLUTE SEGMENTED NEUTROPHIL [3]: 17401.67 CELLS/uL
- BASOPHIL [3]: 0%
- EOSINOPHIL [3]: 1%
- ERYTHROCYTE COUNT [3]: 6.25 x10E6/uL
- HEMATOCRIT [3]: 38.87%
- HEMOGLOBIN [3]: 14.47 G/DL
- LEUKOCYTE COUNT [3]: 18.03 x10E3/uL
- LYMPHOCYTE [3]: 2%
- MEAN CORPUSCULAR HEMOGLOBIN [3]: 23.17 pg
- MEAN CORPUSCULAR HEMOGLOBIN CONCENTRATION [3]: 37.23 G/DL
- MEAN CORPUSCULAR VOLUME [3]: 62.2 fL
- MONOCYTE [3]: 0.33%
- NEUTROPHIL [3]: 96.67%
- NUCLEATED RED BLOOD CELLS [3]: 0 /100WBC
- PLATELET COUNT [3]: 927.33 x10E3/uL
- ALANINE AMINOTRANSFERASE [3]: 204.67 u/L
- ALBUMIN [3]: 3.67 G/DL
- ALKALINE PHOSPHATASE [3]: 242.33 u/L
- ASPARTATE AMINOTRANSFERASE [3]: 271.33 u/L
- BLOOD UREA NITROGEN [3]: 24.67 mg/dL
- CARBON DIOXIDE [3]: 22 mmol/L
- CHLORIDE [3]: 99.33 MEQ/L
- CHOLESTEROL [3]: 122.33 mg/dL
- CREATINE PHOSPHOKINASE [3]: 1143.67 u/L
- CREATININE [3]: 0.2 mg/dL
- GLUCOSE [3]: 515.33 mg/dL
- LACTATE DEHYDROGENASE [3]: 439.33 u/L
- LIPASE [3]: 9.67 u/L
- PHOSPHORUS [3]: 12.77 mg/dL
- POTASSIUM [3]: 4.7 MEQ/L
- SODIUM [3]: 140.6 MEQ/L
- TOTAL BILIRUBIN [3]: 0.73 mg/dL
- TOTAL PROTEIN [3]: 5.7 G/DL
- URIC ACID [3]: 1.07 mg/dL

Source: ChEMBL document CHEMBL3885881, “DrugMatrix”
